Source: ChEMBL document CHEMBL1201862, “PubChem BioAssay data set” (2004)
Activity calls are given as the source filed them.

Key:
[1] = viability of HCT116 lacking mutant beta-catenin – cell-based, human colon tumor, dose response (AID 1045); format: functional;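 note: HCT116 colon tumor cells with beta catenin knocked out; cells exposed to compound for 60 hours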
[2] = viability of PTEN-deleted HCT116 cells – cell-based, HCT116 PTEN knockout, dose response (AID 1047); format: functional;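 note: HCT116 colon tumor cells with PTEN knocked out; cells exposed to compound for 60 hours before readout; potency for loss of cell viability measured by luminescence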
HEK293 = experiment: EBV LMP1 TES2 canonical NF-kB signalling blockers – cell-based, HEK293, luciferase, cherry-pick, dose response (AID 588343); format: functional; conditions: Homo sapiens
[3] = biological target: T1, RNA-binding protein pos-1 (Caenorhabditis elegans, UniProt G5EF15); experiment: disruptors of C. elegans POS-1 RNA interaction – biochemical, fluorescence polarization, dose response (AID 1964);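 note: purified POS-1 fused to maltose binding protein made in E. coli; potency of compounds blocking POS-1 binding to fluorescent RNA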
T1 sequence (G5EF15 whole entry): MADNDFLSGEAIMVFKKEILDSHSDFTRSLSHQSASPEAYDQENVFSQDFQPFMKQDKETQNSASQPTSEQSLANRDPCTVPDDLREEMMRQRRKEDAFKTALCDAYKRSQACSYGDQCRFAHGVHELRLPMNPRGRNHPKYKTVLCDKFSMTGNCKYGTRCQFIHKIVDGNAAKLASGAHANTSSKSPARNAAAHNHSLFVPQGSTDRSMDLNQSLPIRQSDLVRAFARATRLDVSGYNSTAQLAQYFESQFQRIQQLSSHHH

[4] = A cytotoxicity screen of small molecule inhibitors of the PhoP region in Salmonella typhi identified in the primary screen. [Related pubchem assays: 1850, 1864, 1985 ]; format: functional
cells [5] = format: functional, cell-based
cells [6] = format: functional, cell-based; remark: listed apart in the source
INS1 = experiment: INS-1E survival protection against cytokine death – cell-based, luminescence, retest, dose response (AID 449756); format: functional; conditions: Rattus norvegicus;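 note: cell death triggered by IL-1 beta plus TNF-alpha plus IFN-gamma mixture; protective hits raise ATP signal compared with cytokine alone wells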
[7] = biological target: Heat shock protein HSP 90-alpha (Homo sapiens, UniProt P07900); format: functional, organism-based
Streptokinase A = biological target: T2, Streptokinase A (Streptococcus pyogenes serotype M1, UniProt P10520); experiment: viability-normalized secreted streptokinase activity reduction – plasminogen activation absorbance, OD405, dose response (AID 1914); format: functional, Streptococcus pyogenes M1 GAS;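 note: secreted streptokinase activity via plasminogen activation per viability signal from cell pellet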
T2 sequence (P10520 whole entry): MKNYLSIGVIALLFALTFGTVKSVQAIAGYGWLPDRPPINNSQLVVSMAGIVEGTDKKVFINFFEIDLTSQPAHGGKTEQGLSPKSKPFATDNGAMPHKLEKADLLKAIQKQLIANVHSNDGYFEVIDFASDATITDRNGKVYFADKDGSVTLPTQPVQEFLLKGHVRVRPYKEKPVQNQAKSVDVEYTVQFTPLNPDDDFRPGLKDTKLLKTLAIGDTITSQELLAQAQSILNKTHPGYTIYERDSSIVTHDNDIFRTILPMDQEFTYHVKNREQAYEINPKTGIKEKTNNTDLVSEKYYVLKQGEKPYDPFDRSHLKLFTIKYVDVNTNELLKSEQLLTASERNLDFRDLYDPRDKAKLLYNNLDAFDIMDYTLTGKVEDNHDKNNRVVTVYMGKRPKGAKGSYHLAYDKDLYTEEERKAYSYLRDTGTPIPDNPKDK

[8] = luciferase reporter signal suppression in cells – H4 neuroglioma cells, luminescence, dose response (AID 1990); format: functional, cell-based
cells [9] = experiment: cells
[10] = viability of uninfected HEp-2 cells – cell-based, HTS, cytotoxicity control for RSV inhibitor project, dose response (AID 2410); format: functional; conditions: human respiratory syncytial virus
[11] = Luminescence Cell-Based Dose Response HTS to Identify Inhibitors of 5'UTR Stem-Loop Driven Prion Protein mRNA Translation in H4 Neuroglioblastoma Cells. [Related pubchem assays: 1827 (Project Summary), 1813 (Primary HTS)]; format: functional
[12] = test system: Streptococcus sp. 'group A'; experiment: Streptococcus pyogenes SK(-)GAS viability under kanamycin – luminescence, BacTiterGlo, confirmation, counter-screen for streptokinase expression inhibitor project, dose response (AID 1900); format: functional, organism-based
Streptococcus = experiment: GAS UMAA2166 growth inhibition – luminescence, BacTiterGlo, counter-screen for streptokinase expression inhibitor project, dose response (AID 1915); format: functional, organism-based;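 note: potency for reduction of bacterial viability or growth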
Large T antigen = Large T antigen (Simian virus 40, UniProt P03070); format: functional, Betapolyomavirus macacae;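 note: Confirmatory-stage PubChem screen for compounds that inhibit SV40 T antigen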
Sequence of Large T antigen (P03070 whole entry): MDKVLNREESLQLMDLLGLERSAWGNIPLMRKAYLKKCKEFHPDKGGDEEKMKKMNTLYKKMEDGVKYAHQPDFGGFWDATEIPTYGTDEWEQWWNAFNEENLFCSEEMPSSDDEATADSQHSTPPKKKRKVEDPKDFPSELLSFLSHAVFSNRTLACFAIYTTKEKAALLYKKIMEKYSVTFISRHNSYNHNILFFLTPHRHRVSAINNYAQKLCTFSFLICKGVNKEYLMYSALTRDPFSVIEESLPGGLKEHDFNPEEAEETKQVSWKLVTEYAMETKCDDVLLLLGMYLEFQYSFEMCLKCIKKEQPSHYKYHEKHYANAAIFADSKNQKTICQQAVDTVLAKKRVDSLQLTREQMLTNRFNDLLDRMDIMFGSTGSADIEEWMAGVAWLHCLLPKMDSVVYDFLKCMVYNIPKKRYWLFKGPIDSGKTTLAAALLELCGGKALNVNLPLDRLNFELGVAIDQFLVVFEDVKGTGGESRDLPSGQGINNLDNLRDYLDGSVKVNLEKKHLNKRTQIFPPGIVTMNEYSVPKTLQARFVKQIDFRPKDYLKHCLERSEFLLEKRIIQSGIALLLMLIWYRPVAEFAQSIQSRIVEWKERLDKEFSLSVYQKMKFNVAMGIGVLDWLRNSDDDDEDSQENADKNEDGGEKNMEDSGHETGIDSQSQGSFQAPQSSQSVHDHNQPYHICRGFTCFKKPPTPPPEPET

[13] = NIH-3T3 fibroblast cytotoxicity, dose response, cytotoxicity control, cell-based, fluorescence, Alamar Blue, secondary assay (AID 2327); format: functional;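 note: NIH-3T3 mouse fibroblasts cultured with fluconazole at 8 µg/mL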
[14] = biological target: T3, Heat shock factor protein 1 (Mus musculus, UniProt P38532); experiment: enhancement of HSF1-driven luciferase signal – cell-based, NIH3T3, luminescence, dose retest, confirmation (AID 435004); format: functional;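 note: stress induced by proteasome inhibitor MG132 added 30 min after compound; luciferase reporter driven by HSF1 response element in NIH3T3 cells; actives raise luminescence as potentiators of the MG132 stress response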
T3 sequence (P38532 whole entry): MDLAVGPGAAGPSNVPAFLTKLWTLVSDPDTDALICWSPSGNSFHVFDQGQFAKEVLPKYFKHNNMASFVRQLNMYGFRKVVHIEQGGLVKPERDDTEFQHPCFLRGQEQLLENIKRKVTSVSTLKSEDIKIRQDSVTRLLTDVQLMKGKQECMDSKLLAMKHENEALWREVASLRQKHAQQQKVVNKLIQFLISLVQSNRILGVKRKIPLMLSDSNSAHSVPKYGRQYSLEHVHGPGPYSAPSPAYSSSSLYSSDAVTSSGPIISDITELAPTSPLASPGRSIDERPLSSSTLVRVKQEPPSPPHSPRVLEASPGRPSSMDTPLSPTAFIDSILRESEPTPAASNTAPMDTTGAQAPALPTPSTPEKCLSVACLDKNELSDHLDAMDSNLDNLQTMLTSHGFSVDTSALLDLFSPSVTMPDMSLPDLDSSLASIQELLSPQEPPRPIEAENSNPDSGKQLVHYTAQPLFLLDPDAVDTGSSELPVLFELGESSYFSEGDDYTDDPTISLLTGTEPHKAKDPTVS

Protein skinhead-1 = biological target: T4, Protein skinhead-1 (Caenorhabditis elegans, UniProt P34707); format: functional
T4 sequence (P34707 whole entry): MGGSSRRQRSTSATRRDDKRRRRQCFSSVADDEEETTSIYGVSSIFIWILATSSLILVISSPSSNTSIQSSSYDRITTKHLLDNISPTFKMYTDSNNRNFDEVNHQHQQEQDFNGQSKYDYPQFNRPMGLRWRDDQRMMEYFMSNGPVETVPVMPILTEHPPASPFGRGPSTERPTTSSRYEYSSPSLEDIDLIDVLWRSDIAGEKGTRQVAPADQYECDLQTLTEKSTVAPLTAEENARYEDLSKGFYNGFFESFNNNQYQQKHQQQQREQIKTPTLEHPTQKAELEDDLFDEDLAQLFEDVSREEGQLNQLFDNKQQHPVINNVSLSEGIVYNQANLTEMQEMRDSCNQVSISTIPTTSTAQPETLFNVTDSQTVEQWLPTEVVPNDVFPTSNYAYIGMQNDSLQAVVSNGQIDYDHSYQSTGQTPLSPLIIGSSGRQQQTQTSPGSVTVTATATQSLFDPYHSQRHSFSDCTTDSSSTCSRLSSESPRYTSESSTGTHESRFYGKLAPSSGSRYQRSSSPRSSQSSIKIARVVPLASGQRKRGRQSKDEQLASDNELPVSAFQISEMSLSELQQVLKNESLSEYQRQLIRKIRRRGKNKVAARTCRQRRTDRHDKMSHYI

cells [15] = format: functional
[16] = THP-1 cell cytotoxicity, dose response, cytotoxicity control for non-replicating M. tuberculosis project (AID 489025); format: functional
[17] = biological target: T5, DNA repair and recombination protein RAD54-like (Homo sapiens, UniProt Q92698); experiment: RAD54 Holliday junction migration blockers – biochemical, fluorescence, cherry-picked samples, dose series, confirmation (AID 651657); format: functional
T5 sequence (Q92698 whole entry): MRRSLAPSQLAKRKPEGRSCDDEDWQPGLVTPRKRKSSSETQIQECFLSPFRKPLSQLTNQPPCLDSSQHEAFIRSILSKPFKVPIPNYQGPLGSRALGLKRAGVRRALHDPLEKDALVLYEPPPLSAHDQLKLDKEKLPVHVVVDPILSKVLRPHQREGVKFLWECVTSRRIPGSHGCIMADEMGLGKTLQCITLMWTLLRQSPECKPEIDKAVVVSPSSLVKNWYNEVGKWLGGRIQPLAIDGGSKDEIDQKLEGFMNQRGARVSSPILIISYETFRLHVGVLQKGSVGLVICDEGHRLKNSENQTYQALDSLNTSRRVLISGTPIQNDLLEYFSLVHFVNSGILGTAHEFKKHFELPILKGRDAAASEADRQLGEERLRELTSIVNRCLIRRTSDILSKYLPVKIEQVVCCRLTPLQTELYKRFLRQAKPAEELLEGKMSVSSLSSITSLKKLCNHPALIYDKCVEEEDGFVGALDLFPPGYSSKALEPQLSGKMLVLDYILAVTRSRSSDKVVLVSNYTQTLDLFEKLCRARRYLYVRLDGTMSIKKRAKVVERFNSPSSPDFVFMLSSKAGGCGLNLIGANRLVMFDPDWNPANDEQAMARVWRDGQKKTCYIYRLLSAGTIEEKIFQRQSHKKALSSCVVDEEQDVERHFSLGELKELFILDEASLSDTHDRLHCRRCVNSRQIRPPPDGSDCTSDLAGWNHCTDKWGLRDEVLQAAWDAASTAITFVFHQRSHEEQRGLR

[18] = alpha-synuclein stem-loop luciferase translation blockers – H4 neuroglioma cells, luminescence, confirmation (AID 1988); format: functional, cell-based

CCCCNC(=O)CCn1c(=O)c2ccccc2n(Cc2ccc(Cl)cc2)c1=O
EC50 [1]: 19.5 µM (active)
EC50 [2]: 18 µM (active)

CN(C1CCCCC1)S(=O)(=O)c1ccc(C(=O)N2CCN(c3nc4ccccc4s3)CC2)cc1
AC50 (HEK293): 2.85 µM (active)

O=C(NNC(=O)c1cc(Cl)ccc1[N+](=O)[O-])c1csc(N2CCOCC2)n1
EC50 [3]: > 300 µM (inconclusive)

COc1ccc(Cn2c(=N)c(C(=O)NCC3CCCO3)cc3c(=O)n4ccccc4nc32)cc1 (configuration not stated)
EC50 [4]: > 50 µM (active)

Cc1occc1C(=O)NC1CCCCCC1
EC50 (cells [5]): > 350 µM (not active)
EC50 (cells [6]): 73 µM (active)

COC(=O)C1=C(C)N(Cc2ccc(OC)cc2)C(=O)C1
EC50 (cells [5]): > 350 µM (not active)
EC50 (cells [6]): > 350 µM (not active)

N#Cc1c2ccc([N+](=O)[O-])cc2[n+]([O-])n1-c1ccccc1
AC50 (INS1): 3.15 µM (active)
AC50 [7]: 2.86 µM (active)

CCc1nc(SCC(=O)N2c3ccccc3CC2C)c2c(C)c(C)sc2n1 (configuration not stated)
EC50 (Streptokinase A): 57.8 µM (active)
EC50 [8]: > 120 µM (not active)
IC50 (cells [9]): 3.55 µM (active)
CC50 [10]: 5.39 µM (active)
EC50 [11]: 18 µM (active)
EC50 [12]: 13.8 µM (active)
EC50 (Streptococcus): > 150 µM (not active)

CN(C)c1ccc(NC(=O)/C=C/c2c(Cl)cccc2Cl)cc1
IC50 (cells [9]): 10.2 µM (active)
CC50 [10]: 17.3 µM (active)

O=c1cc(CN2CCN(Cc3ccccc3)CC2)c2ccc(O)c(O)c2o1
IC50 (Large T antigen): 4.91 µM (active)
EC50 [13]: > 160 µM (inactive)

Cc1ccc(S/C=C\C(=O)c2ccccc2)cc1
EC50 [1]: 33.1 µM (active)
EC50 [2]: 98.5 µM (active)
EC50 [14]: 8.81 µM (active)
IC50 (Protein skinhead-1): 32.9 µM (active)

COc1ccc(S(=O)(=O)N2CCOC2CNC(=O)C(=O)NCc2ccc3c(c2)OCO3)cc1OC (configuration not stated)
EC50 (cells [5]): > 350 µM (not active)
EC50 (cells [6]): > 350 µM (not active)

N=C(NOS(=O)(=O)c1ccccc1)c1cccnc1
EC50 [4]: > 50 µM (active)

CCOC(=O)c1c(C)[nH]c(C(=O)OCC(=O)Nc2cc(C)c(Cl)cc2OC)c1C
EC50 [1]: 16.2 µM (active)
EC50 [2]: 12.8 µM (active)

O=[N+]([O-])c1ccc(CNc2cccc(Cl)c2)s1
IC50 (cells [15]): 48.6 µM (active)
CC50 [16]: > 40 µM (active)

O=C(CSc1nnc(-c2ccccc2Cl)o1)N1CCOCC1
EC50 (cells [5]): > 350 µM (not active)
EC50 (cells [6]): > 350 µM (not active)

CCOC(=O)c1cc(-c2ccncc2)nc2c1c(C)nn2-c1ccccn1
AC50 [17]: 30.4 µM (active)
EC50 [4]: > 50 µM (active)

Cc1nc(C)c(-c2ccc(SCc3ccccc3F)nn2)s1
EC50 [4]: > 50 µM (active)

CCc1nn2cc(-c3ccccc3)nc2s1
AC50 (HEK293): 2.06 µM (active)

CCn1nnc2cc(C(=O)NCCc3ccccc3F)ccc21
EC50 [18]: 5.03 µM (active)
EC50 [11]: 4.08 µM (active)
AC50 (HEK293): 3.14 µM (active)

NC(=O)c1c(NC(=O)CSc2nc(N)cc(O)n2)sc2c1CCCC2
EC50 [4]: > 50 µM (active)

COc1cccc(C(=O)SC2=NCCS2)c1
EC50 (cells [5]): > 350 µM (not active)
EC50 (cells [6]): 55.8 µM (active)

CC(=O)Oc1ccc(N(C(C)=O)S(=O)(=O)c2cccs2)c2ccccc12
AC50 (INS1): 8.83 µM (active)
CC50 [16]: 26.1 µM (active)

COC(=O)C1=C(C)N(Cc2ccco2)C(=O)N[C@H]1c1cccc(C(F)(F)F)c1
IC50 (cells [9]): 1.47 µM (active)
CC50 [10]: 25.6 µM (active)

COc1ccc(/C=C2/C(=O)N(Cc3ccco3)C(=O)N(C(C)C)C2=O)cc1
IC50 (Large T antigen): 80.6 µM (active)

CN1C(=O)C(=C(Nc2ccc(F)cc2)c2ccccc2Cl)C(=O)N(C)C1=O
AC50 [7]: 3.17 µM (active)

O=C(N/N=C/C(Br)=C/c1ccccc1)c1ccncc1
IC50 (cells [15]): 0.61 µM (active)
CC50 [16]: > 40 µM (active)

O=C(N/N=C/c1cccnc1)c1ccc([N+](=O)[O-])cc1Cl
EC50 [4]: > 50 µM (active)

O=C(N/N=C/c1ccc(O)c(O)c1)c1cccc(S(=O)(=O)N2CCCC2)c1
IC50 (Large T antigen): 4.72 µM (active)

CCCCN(CC)S(=O)(=O)c1ccc(C(=O)/N=c2\sc3cc(NC(C)=O)ccc3n2C)cc1
EC50 [1]: 10.2 µM (active)
EC50 [2]: 17.1 µM (active)

Cc1cccc(NS(=O)(=O)c2ccc(C)c(C(=O)OCC(=O)Nc3cc(C)on3)c2)c1
EC50 [8]: 41.1 µM (active)
EC50 [18]: 28.1 µM (active)
IC50 (cells [9]): 30.8 µM (active)
CC50 [10]: 23.9 µM (active)
EC50 [11]: > 120 µM (not active)
